{
  "source": "patent US6482413B1",
  "about": "“Vitamin B12 —biodegradable micro particulate conjugate carrier systems for peroral delivery of drugs, therapeutic peptides/proteins and vaccines” (Council of Scientific and Industrial Research, priority 2001, dated 2002)",
  "key": {"[1]": {"tested_on": "Streptozotocin induced diabetic rats", "experiment": "Antidiabetic activity of orally administered insulin loaded delivery systems", "format": "in vivo, rat", "description": "The pharmacological availability was assessed by the above results.\nVarious insulin loaded drug delivery systems prepared were tested for antidiabetic activity in Streptozotocin induced diabetic rats and the results are briefed in summary section. These insulin drug delivery systems are orally administered to diabetic rats (n=number of animals). At various time intervals after feeding the rats were bled and their blood glucose levels determined."}, "intestinal enzymes": {"tested_on": "intestinal enzymes", "settings": "FIG. 3; same experimental conditions for free and entrapped insulin"}, "VB12 transport system": {"tested_on": "VB12 transport system", "settings": "oral uptake capacity; cited from earlier work"}, "IF": {"biological_target": "IF (Homo sapiens, UniProt P27352)", "sequence (P27352 19-417)": "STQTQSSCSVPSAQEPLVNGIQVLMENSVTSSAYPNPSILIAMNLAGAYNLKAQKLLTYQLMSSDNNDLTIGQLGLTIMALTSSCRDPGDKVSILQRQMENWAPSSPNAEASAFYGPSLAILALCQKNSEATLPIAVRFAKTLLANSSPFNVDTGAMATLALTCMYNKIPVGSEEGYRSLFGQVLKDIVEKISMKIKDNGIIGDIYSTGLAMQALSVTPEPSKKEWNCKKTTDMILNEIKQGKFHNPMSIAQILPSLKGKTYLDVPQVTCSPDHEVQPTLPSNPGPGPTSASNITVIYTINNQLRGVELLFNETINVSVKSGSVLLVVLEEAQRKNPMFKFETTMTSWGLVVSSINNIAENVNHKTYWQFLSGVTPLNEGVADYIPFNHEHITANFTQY", "settings": "among b, d and e monocarboxylate isomers; cited from earlier work"}},
  "data": [
    {"substance": "insulin", "values": [
      {"measurement": "activity at 3rd, 4th, 5th and 6th hours", "setting": "[1]", "result": "no activity"},
      {"measurement": "Degradation of insulin by digestive enzymes", "setting": "intestinal enzymes", "result": "completely degraded"}
    ]},
    {"substance": "Vitamin B12 [VB12]", "values": [
      {"measurement": "uptake of VB12", "setting": "VB12 transport system", "result": 1, "unit": "nmol/dose"}
    ]},
    {"substance": "‘e’ monocarboxylate of VB12 [Conjugate 1b]", "values": [
      {"measurement": "affinity for IF", "setting": "IF", "result": "highest affinity"}
    ]}
  ]
}
